Measurements: US7351728B2, “Oxazolyl-aryloxyacetic acid derivatives and their use as PPAR agonists” (Eli Lilly and Company, priority 2003, dated 2008)

Key:
huPPARγ [1] = target: T1, huPPARγ (Homo sapiens, UniProt P37231); experiment: DNA-dependent binding (ABCD binding), SPA, tritium-labeled PPARγ agonist radioligand; conditions: displacement of tritium-labeled PPARγ agonist
T1 sequence (P37231 1-505): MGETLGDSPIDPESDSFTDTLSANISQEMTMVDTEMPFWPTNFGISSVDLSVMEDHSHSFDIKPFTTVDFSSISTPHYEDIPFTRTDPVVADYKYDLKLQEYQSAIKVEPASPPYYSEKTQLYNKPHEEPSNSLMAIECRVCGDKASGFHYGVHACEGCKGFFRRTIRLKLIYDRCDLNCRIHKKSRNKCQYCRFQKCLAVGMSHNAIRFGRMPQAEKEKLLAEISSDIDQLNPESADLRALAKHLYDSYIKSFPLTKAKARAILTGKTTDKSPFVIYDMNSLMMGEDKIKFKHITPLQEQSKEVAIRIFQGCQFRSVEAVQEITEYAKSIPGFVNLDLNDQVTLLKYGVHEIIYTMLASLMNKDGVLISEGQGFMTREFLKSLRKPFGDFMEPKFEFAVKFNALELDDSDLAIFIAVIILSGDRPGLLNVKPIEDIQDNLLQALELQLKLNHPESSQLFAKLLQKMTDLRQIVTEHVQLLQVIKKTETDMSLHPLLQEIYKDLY
T1 sequence (P19793 1-462 partner): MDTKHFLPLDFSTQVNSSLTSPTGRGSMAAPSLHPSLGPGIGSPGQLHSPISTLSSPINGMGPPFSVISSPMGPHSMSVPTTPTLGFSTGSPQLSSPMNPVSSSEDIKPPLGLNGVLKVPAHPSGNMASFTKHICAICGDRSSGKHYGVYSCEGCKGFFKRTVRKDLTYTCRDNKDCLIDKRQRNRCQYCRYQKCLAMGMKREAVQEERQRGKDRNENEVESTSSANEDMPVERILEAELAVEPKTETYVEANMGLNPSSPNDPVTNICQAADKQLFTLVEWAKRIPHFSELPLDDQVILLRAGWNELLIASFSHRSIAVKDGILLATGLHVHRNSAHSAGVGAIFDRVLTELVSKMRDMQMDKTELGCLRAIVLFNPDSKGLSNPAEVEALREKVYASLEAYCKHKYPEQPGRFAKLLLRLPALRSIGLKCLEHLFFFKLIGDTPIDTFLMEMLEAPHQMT
Experimental: (§1) DNA-dependent binding (ABCD binding) was carried out using SPA technology with PPAR receptors. Tritium-labeled PPARα and PPARγ agonists were used as radioligands for generating displacement curves and IC50 values with compounds of the invention. Cotransfection assays were carried out in CV-1 cells. The reporter plasmid contained an acylCoA oxidase (AOX) PPRE and TK promoter upstream of the luciferase reporter cDNA. Appropriate PPARs and RXRα were constitutively expressed using plasmids containing the CMV promoter. […] In order to eliminate such interference, a GAL4 chimeric system was used in which the DNA binding domain of the transfected PPAR was replaced by that of GAL4, and the GAL4 response element was utilized in place of the AOX PPRE. Cotransfection efficacy was determined relative to PPARα agonist and PPARγ agonist reference molecules. Efficacies were determined by computer fit to a concentration-response curve, or in some cases at a single high concentration of agonist (10 μM). For binding or cotransfection studies with receptors other than PPARs, similar assays were carried out using appropriate ligands, receptors, reporter constructs, etc., for that particular receptor.
(§2) These studies were carried out to evaluate the ability of compounds of the invention to bind to and/or activate various nuclear transcription factors, particularly huPPARα (“hu” indicates “human”) and huPPARγ. These studies provide in vitro data concerning efficacy and selectivity of compounds of the invention. Furthermore, binding and cotransfection data for compounds of the invention were compared with corresponding data for marketed compounds that act on either huPPARα or huPPARγ.
(§3) Binding and cotransfection data for representative compounds of the invention are compared with corresponding data for reference compounds in Table II.

huPPARγ [2] = target: T1, huPPARγ; experiment: Cotransfection assay in CV-1 cells, AOX PPRE luciferase reporter; assay type: cell-based; set-up: expressed in transfected cells; host or cells: CV-1 cells; conditions: cotransfection efficacy relative to PPARγ agonist reference molecule, read-out: huPPARγ CTF Eff. (%)
Experimental: as §1, §2, §3

| IC50 (huPPARγ [1]) [µM] | Emax (huPPARγ [2]) [%] | melting point [°C] | SMILES |
| --- | --- | --- | --- |
| 2.13 | 69 | – | Cc1oc(-c2ccccc2)nc1CCOc1ccc(OC(C)(C)C(=O)O)cc1 [Example 1, 2-Methyl-2-{4-[2-(5-methyl-2-phenyloxazol-4-yl)ethoxy]phenoxy}propionic acid] |
| 0.18 | 60 | 158 to 159 | Cc1oc(-c2cccc(Br)c2)nc1CCOc1ccc(OC(C)(C)C(=O)O)cc1 [Example 9A, 2-(4-{2-[2-(3-Bromophenyl)-5-methyloxazol-4-yl]ethoxy}phenoxy)-2-methylpropionic acid] |
| 0.219 | 66 | 134 to 135 | CCc1cccc(-c2nc(CCOc3ccc(OC(C)(C)C(=O)O)cc3)c(C)o2)c1 [Example 12, 2-(4-{2-[2-(3-Ethylphenyl)-5-methyloxazol-4-yl]ethoxy}phenoxy)-2-methylpropionic acid] |
| 0.102 | 170 | 124 to 125 | Cc1oc(-c2cccc(CCc3ccccc3)c2)nc1CCOc1ccc(OC(C)(C)C(=O)O)cc1 [Example 12A, 2-Methyl-2-(4-{2-[5-methyl-2-(3-phenethylphenyl)oxazol-4-yl]ethoxy}phenoxy)-propionic acid] |
| 0.42 | 109 | – | CCc1ccc(-c2nc(CCOc3ccc(OC(C)(C)C(=O)O)cc3)c(C)o2)cc1 [Example 13, 2-(4-{2-[2-(4-Ethylphenyl)-5-methyloxazol-4-yl]ethoxy}phenoxy)-2-methylpropionic acid] |
| 0.627 | 85 | – | Cc1oc(-c2ccc(OC3CCCCC3)cc2)nc1CCOc1ccc(OC(C)(C)C(=O)O)cc1 [Example 21, 2-(4-{2-[2-(4-Cyclohexyloxy-phenyl)-5-methyl-oxazol-4-yl]-ethoxy}-phenoxy)-2-methyl-propionic acid] |
| 0.239 | 94 | 117 | Cc1cc(OCCc2nc(-c3ccccc3)oc2C)ccc1OC(C)(C)C(=O)O [Example 24, 2-Methyl-2-{2-methyl-4-[2-(5-methyl-2-phenyloxazol-4-yl)ethoxy]phenoxy}propionic acid] |
| 1.15 | 52 | – | CCCc1cc(OCCc2nc(-c3ccccc3)oc2C)ccc1OCC(=O)O [Example 26, {4-[2-(5-methyl-2-phenyl-oxazol-4-yl)ethoxy]-2-propylphenoxy}acetic acid] |
| 0.102 | 74 | – | CCCc1cc(OCCc2nc(-c3ccccc3)oc2C)ccc1OC(C)(C)C(=O)O [Example 26A, 2-Methyl-2-{4-[2-(5-methyl-2-phenyloxazol-4-yl)ethoxy]-2-propylphenoxy}propionic acid] |
| 0.049 | 63 | – | CCCc1cc(OC(C)(C)C(=O)O)ccc1OCCc1nc(-c2ccccc2)oc1C [Example 27A, 2-Methyl-2-{4-[2-(5-methyl-2-phenyloxazol-4-yl)ethoxy]-3-propylphenoxy}propionic acid] |
| 0.078 | 92 | – | CCc1cc(OCCc2nc(-c3ccccc3)oc2C)ccc1OC(C)(C)C(=O)O [Example 30A, 2-{2-Ethyl-4-[2-(5-methyl-2-phenyloxazol-4-yl)ethoxy]phenoxy}2-methylpropionic acid] |
| 0.148 | 63 | – | Cc1oc(-c2ccccc2)nc1CCOc1ccc(OC(C)(C)C(=O)O)c(CC(C)C)c1 [Example 30C, 2-{2-Isobutyl-4-[2-(5-methyl-2-phenyloxazol-4-yl)ethoxy]phenoxy}-2-methylpropionic acid] |
| 0.083 | 50 | – | Cc1oc(-c2ccccc2)nc1CCOc1ccc(OC(C)(C)C(=O)O)c(CCc2ccccc2)c1 [Example 30J, 2-Methyl-2-{4-[2-(5-methyl-2-phenyloxazol-4-yl)ethoxy]-2-phenethylphenoxy}propionic acid] |
| 0.01 | 51 | – | CCCCc1cc(OC(C)(C)C(=O)O)ccc1OCCc1nc(-c2ccccc2)oc1C [Example 31F, 2-{3-Butyl-4-[2-(5-methyl-2-phenyloxazol-4-yl)ethoxy]phenoxy}-2-methylpropionic acid] |
| 0.042 | 80 | – | Cc1oc(-c2ccccc2)nc1CCOc1ccc(OC(C)(C)C(=O)O)c(Cc2ccccc2)c1 [Example 32, 2-{2-Benzyl-4-[2-(5-methyl-2-phenyloxazol-4-yl)ethoxy]phenoxy}-2-methylpropionic acid] |
| 0.172 | 60 | – | Cc1oc(-c2ccccc2)nc1CCOc1ccc(OC(C)(C)C(=O)O)c2ccccc12 [Example 37, 2-Methyl-2-{4-[2-(5-methyl-2-phenyl-oxazol-4-yl)-ethoxy]-naphthalen-1-yloxy}-propionic acid] |
| 0.081 | 65 | – | Cc1oc(-c2ccccc2)nc1CCOc1ccc(OC(C)(C)C(=O)O)c2c1CCCC2 [Example 38, 2-Methyl-2-{4-[2-(5-methyl-2-phenyl-oxazol-4-yl)-ethoxy]-5,6,7,8-tetrahydro-naphthalen-1-yloxy}-propionic acid] |
